Values of other authors in patent US20040198708A1, “Formulations of mometasone and a bronchodilator for pulmonary administration” (priority 2000, published 2004).

Legend:
HPA axis [1] = conditions: mice, inhaled; Chapman et al. (1998)
HPA axis [2] = conditions: humans, inhaled, dosages of up to 800 mcg daily; Bernstein et al. (1999)
[3] = test system: patients with mild to moderate persistent asthma; conditions: inhaled once daily, Nayak et al. (2000)

- Suppression of the HPA axis (HPA axis [1]): has not been reported
- HPA axis suppression (HPA axis [2]): did not cause HPA axis suppression
SMILES: C[C@@H]1C[C@H]2[C@@H]3CCC4=CC(=O)C=C[C@]4(C)[C@@]3(Cl)[C@@H](O)C[C@]2(C)[C@@]1(OC(=O)c1ccco1)C(=O)CCl [mometasone furoate, (11β,16α)-9,21-dichloro-17-[(2-furanylcarbonyl)oxy]-11-hydroxy-16-methylpregna-1,4-diene-3,20-dione]
- Effectiveness in treating asthma [3]: effective
